Results from patent US8173638B2 (Boehringer Ingelheim International GmbH, priority 2006, dated 2012).
Where two headings read alike, the source gives them in different places.

Target: T1, human CB2R (Homo sapiens, UniProt P34972)
T1 construct: host or cells: CHO cells
Experiment: CB2R mediated modulation of cAMP synthesis
Format: cell-based
Conditions: for agonistic activity: found through the use of the described assays (CB2 agonists), qualitative statement; for Emax: 0.5 h, read-out: Agonist Efficacy (%)
How it was run: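 Forskolin (10 uM)-driven cAMP in human CB2R-expressing CHO cells, read with DiscoverX-XS kit after 30 min compound exposure at 37 °C, 1 mM IBMX, 0.25% BSA. 100% defined as forskolin cAMP relative to 1 uM CP55940 inhibition. Agonist EC50 via four-parameter logistic model.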

[1] = CHO cells expressing human CB2R, cAMP inhibited by 1 uM CP55940 defined as 100%

T1 sequence (P34972 whole entry): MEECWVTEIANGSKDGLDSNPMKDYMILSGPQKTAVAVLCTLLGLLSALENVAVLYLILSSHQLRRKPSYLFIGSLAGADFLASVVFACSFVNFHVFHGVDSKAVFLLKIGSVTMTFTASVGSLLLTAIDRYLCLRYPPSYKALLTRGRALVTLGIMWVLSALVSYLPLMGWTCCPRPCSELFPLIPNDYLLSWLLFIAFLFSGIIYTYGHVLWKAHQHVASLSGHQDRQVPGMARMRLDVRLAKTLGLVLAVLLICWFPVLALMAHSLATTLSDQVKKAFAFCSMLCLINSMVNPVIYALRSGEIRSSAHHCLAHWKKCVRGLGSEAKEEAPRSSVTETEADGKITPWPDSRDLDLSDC

agonistic activity | SMILES | other results
agonistic activity | Cc1ccc(C(=O)N2CCCN(C(=O)Nc3ccc(C(C)(C)C)cc3)CC2)cc1 [4-(4-Methyl-benzoyl)-[1,4]diazepane-1-carboxylic acid (4-tert-butyl-phenyl)-amide] | 
agonistic activity | O=C(Nc1cnc2ccccc2c1)N1CCCN(C(=O)C2CCOCC2)CC1 [4-(Tetrahydro-pyran-4-carbonyl)-[1,4]diazepane-1-carboxylic acid quinolin-3-ylamide] | 
agonistic activity | COC1CCN(C(=O)N2CCCN(C(=O)Nc3cc(C(C)(C)C)no3)CC2)CC1 [4-(4-Methoxy-piperidine-1-carbonyl)-[1,4]diazepane-1-carboxylic acid (3-tert-butyl-isoxazol-5-yl)-amide] | 
agonistic activity | O=C(Nc1ccc(C(F)(F)F)cc1)N1CCCN(C(=O)C2CCC(F)(F)CC2)CC1 [4-(4,4-Difluoro-cyclohexanecarbonyl)-[1,4]diazepane-1-carboxylic acid (4-trifluoromethyl-phenyl)-amide] | 
agonistic activity | O=C(Nc1nc(C2CC2)cs1)N1CCCN(C(=O)c2ccc(Cl)cc2)CC1 [4-(4-Chloro-benzoyl)-[1,4]diazepane-1-carboxylic acid (4-cyclopropyl-thiazol-2-yl)-amide] | 
agonistic activity | CCc1ccc(NC(=O)N2CCCN(C(=O)C3CCCCC3)CC2)cc1 [4-Cyclohexanecarbonyl-[1,4]diazepane-1-carboxylic acid (4-ethyl-phenyl)-amide] | 
agonistic activity | CC(C)c1ccc(NC(=O)N2CCCN(C(=O)CCC(F)(F)F)CC2)cc1 [4-(4,4,4-Trifluoro-butyryl)-[1,4]diazepane-1-carboxylic acid (4-isopropyl-phenyl)-amide] | 
agonistic activity | CCC(C)c1cc(NC(=O)N2CCCN(C(=O)N3CCOCC3)CC2)on1 (stereo not shown) [4-(Morpholine-4-carbonyl)-[1,4]diazepane-1-carboxylic acid (3-sec-butyl-isoxazol-5-yl)-amide] | 
agonistic activity | O=C(Nc1ccc2ccccc2c1)N1CCCN(C(=O)C2CCCC2)CC1 [4-Cyclopentanecarbonyl-[1,4]diazepane-1-carboxylic acid naphthalen-2-ylamide] | 
agonistic activity | CCC(C)c1ccc(NC(=O)N2CCCN(C(=O)C3CCOCC3)CC2)nc1 (stereo not shown) [4-(Tetrahydro-pyran-4-carbonyl)-[1,4]diazepane-1-carboxylic acid (5-sec-butyl-pyridin-2-yl)-amide] | 
agonistic activity | CC(C)(C)c1ccc(NC(=O)N2CCCN(C(=O)c3ccc(C#N)cc3)CC2)cc1 [4-(4-Cyano-benzoyl)-[1,4]diazepane-1-carboxylic acid (4-tert-butyl-phenyl)-amide] | 
agonistic activity | CCC(C)c1cc(NC(=O)N2CCCN(C(=O)C3CCOCC3)CC2)n(C)n1 (stereo not shown) [4-(Tetrahydro-pyran-4-carbonyl)-[1,4]diazepane-1-carboxylic acid (5-sec-butyl-2-methyl-2H-pyrazol-3-yl)-amide] | 
agonistic activity | Cc1nc(NC(=O)N2CCCN(C(=O)C3CCC(F)(F)CC3)CC2)sc1C(C)(C)C [4-(4,4-Difluoro-cyclohexanecarbonyl)-[1,4]diazepane-1-carboxylic acid (5-tert-butyl-4-methyl-thiazol-2-yl)-amide] | 
agonistic activity | CCCc1ccc(NC(=O)N2CCCN(C(=O)CCC3CCCC3)CC2)cc1 [4-(3-Cyclopentyl-propionyl)-[1,4]diazepane-1-carboxylic acid (4-propyl-phenyl)-amide] | 

Continued, molecule first:

SMILES | agonistic activity | other results
O=C(CC1CCOCC1)N1CCCN(C(=O)Nc2cc(Cl)cc(Cl)c2)CC1 [4-(2-Tetrahydro-pyran-4-yl-acetyl)-[1,4]diazepane-1-carboxylic acid (3,5-dichloro-phenyl)-amide] | agonistic activity | 
CC(C)(C)c1ccc(NC(=O)N2CCCN(C(=O)CC3CCOCC3)CC2)cc1 [4-(2-Tetrahydro-pyran-4-yl-acetyl)-[1,4]diazepane-1-carboxylic acid (4-tert-butyl-phenyl)-amide] | agonistic activity | 
CC(C)(C)c1cc(NC(=O)N2CCCN(C(=O)C3CCOCC3)CC2)[nH]n1 [4-(Tetrahydro-pyran-4-carbonyl)-[1,4]diazepane-1-carboxylic acid (5-tert-butyl-2H-pyrazol-3-yl)-amide] | agonistic activity | 
CC(C)(C)c1cc(NC(=O)N2CCCN(C(=O)C3CCS(=O)(=O)CC3)CC2)no1 [4-(1,1-Dioxo-hexahydro-1λ^6-thiopyran-4-carbonyl)-[1,4]diazepane-1-carboxylic acid (5-tert-butyl-isoxazol-3-yl)-amide] | agonistic activity | 
CC(=O)N1CCC(C(=O)N2CCCN(C(=O)Nc3cc(C(C)(C)C)on3)CC2)CC1 [4-(1-Acetyl-piperidine-4-carbonyl)-[1,4]diazepane-1-carboxylic acid (5-tert-butyl-isoxazol-3-yl)-amide] | agonistic activity | 
CC(C)(C)c1cc(NC(=O)N2CCCN(C(=O)C3CCCN(S(C)(=O)=O)C3)CC2)no1 (stereo not shown) [4-(1-Methanesulfonyl-piperidine-3-carbonyl)-[1,4]diazepane-1-carboxylic acid (5-tert-butyl-isoxazol-3-yl)-amide] | agonistic activity | 
CC(C)(C)c1cc(NC(=O)N2CCCN(C(=O)CC3CCCC3)CC2)no1 [Compound 140, 4-(2-Cyclopentyl-acetyl)-[1,4]diazepane-1-carboxylic acid (5-tert-butyl-isoxazol-3-yl)-amide] |  | EC50: 12 nM; Emax (CHO): 103%
O=C(Nc1nc(-c2ccccc2)cs1)N1CCCN(C(=O)C2CCC(O)CC2)CC1 (stereo not shown) [4-(4-Hydroxy-cyclohexanecarbonyl)-[1,4]diazepane-1-carboxylic acid (4-phenyl-thiazol-2-yl)-amide] | agonistic activity | 
CC(C)(C)c1cc(NC(=O)N2CCCN(C(=O)Nc3ccccc3)CC2)no1 | agonistic activity | 
O=C(Nc1ccc2ccccc2c1)N1CCCN(C(=O)c2ccc(Cl)cc2Cl)CC1 [Compound 99, 4-(2,4-Dichloro-benzoyl)-[1,4]diazepane-1-carboxylic acid naphthalen-2-ylamide] |  | Emax [1]: 102%; EC50 (read-out: hCB2 cAMP EC50): 100 nM
O=C(Nc1nc(-c2ccccc2)cs1)N1CCCN(C(=O)c2ccc(Cl)cc2)CC1 [Compound 167, 4-(4-Chloro-benzoyl)-[1,4]diazepane-1-carboxylic acid (4-phenyl-thiazol-2-yl)-amide] |  | Emax [1]: 102%; EC50 (read-out: hCB2 cAMP EC50): 26 nM
CC(C)(C)c1cc(NC(=O)N2CCCN(C(=O)CN3CCC(F)(F)CC3)CC2)no1 [Compound 229, 4-[2-(4,4-Difluoro-piperidin-1-yl)-acetyl]-[1,4]diazepane-1-carboxylic acid (5-tert-butyl-isoxazol-3-yl)-amide] |  | Emax [1]: 104%; EC50 (read-out: hCB2 cAMP EC50): 24 nM
O=C(CC1CCOCC1)N1CCCN(C(=O)Nc2ccc(OC(F)(F)F)cc2)CC1 [4-(2-Tetrahydro-pyran-4-yl-acetyl)-[1,4]diazepane-1-carboxylic acid (4-trifluoromethoxy-phenyl)-amide] | agonistic activity | 
CCc1ccc(NC(=O)N2CCCN(C(=O)CCC3CCCC3)CC2)cc1 [4-(3-Cyclopentyl-propionyl)-[1,4]diazepane-1-carboxylic acid (4-ethyl-phenyl)-amide] | agonistic activity | 
CC(C)(C)c1ccc(NC(=O)N2CCCN(C(=O)c3ccc(Cl)c(Cl)c3)CC2)cc1 [4-(3,4-Dichloro-benzoyl)-[1,4]diazepane-1-carboxylic acid (4-tert-butyl-phenyl)-amide] | agonistic activity | 
CC(C)(C)c1cc(NC(=O)N2CCCN(C(=O)N3CCC(F)(F)CC3)CC2)no1 [Compound 206, 4-(4,4-Difluoro-piperidine-1-carbonyl)-[1,4]diazepane-1-carboxylic acid (5-tert-butyl-isoxazol-3-yl)-amide] |  | EC50: 16 nM; Emax (CHO): 105%
CC(C)(C)c1cc(NC(=O)N2CCCN(C(=O)CC3CCCC3)CC2)no1 [4-(2-Cyclopentyl-acetyl)-[1,4]diazepane-1-carboxylic acid (5-tert-butyl-isoxazol-3-yl)-amide] | agonistic activity | 
N#Cc1ccc(C(=O)N2CCCN(C(=O)Nc3ccc4ccccc4c3)CC2)cc1 [Compound 88, 4-(4-Cyano-benzoyl)-[1,4]diazepane-1-carboxylic acid naphthalen-2-ylamide] |  | Emax [1]: 97%; EC50 (read-out: hCB2 cAMP EC50): 36 nM
CS(=O)(=O)c1ccc(NC(=O)N2CCCN(C(=O)CCC3CCCC3)CC2)cc1 [4-(3-Cyclopentyl-propionyl)-[1,4]diazepane-1-carboxylic acid (4-methanesulfonyl-phenyl)-amide] | agonistic activity | 
CC(C)(C)c1cc(NC(=O)N2CCCN(C(=O)N3CCCCC3)CC2)no1 [4-(Piperidine-1-carbonyl)-[1,4]diazepane-1-carboxylic acid (5-tert-butyl-isoxazol-3-yl)-amide] | agonistic activity | 
O=C(CC1CCCC1)N1CCCN(C(=O)Nc2ccc(OC(F)(F)F)cc2)CC1 [4-(2-Cyclopentyl-acetyl)-[1,4]diazepane-1-carboxylic acid (4-trifluoromethoxy-phenyl)-amide] | agonistic activity | 
CC(C)(C)c1cc(NC(=O)N2CCCN(C(=O)CN3CCSCC3)CC2)no1 [4-(2-Thiomorpholin-4-yl-acetyl)-[1,4]diazepane-1-carboxylic acid (5-tert-butyl-isoxazol-3-yl)-amide] | agonistic activity | 
CC(C)(C)c1cc(NC(=O)N2CCCN(C(=O)C3CCCO3)CC2)no1 (stereo not shown) [4-(Tetrahydro-furan-2-carbonyl)-[1,4]diazepane-1-carboxylic acid (5-tert-butyl-isoxazol-3-yl)-amide] | agonistic activity | 
